Molecules are shown by their SMILES.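 Cultured in 96-well plates, cells were exposed to test compound for 48 hours across five concentrations. Here, GI50 denotes the concentration required for 50% inhibition of growth.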 The source made the active and inactive calls. No stated cut-off is given here; in the data, active = GI50 up to about 1.1 µM and inactive = higher.

Test systems include OVCAR-4; SNB-19; SR; UACC-257; CCRF-CEM; SN12C; A498; NCI-H460; HCC 2998; IGROV-1; CAKI-1; NCI-H226; OVCAR-5; SW-620; M14; UO-31; SK-MEL-5; HCT-15.
Experiment in all cases: inhibition of tumour cell growth, NCI panel, 48 h

As for `COC(=O)C1C(C(=O)OC)C2C(=O)C3C(C(=O)OC)C(C(=O)OC)C3C(=O)C12` (configuration not stated), the GI50 in the assay with OVCAR-4, in the assay with SNB-19, with SR, in the assay on UACC-257, in the assay with CCRF-CEM and in the assay with SN12C was > 100 µM (inactive) throughout. Besides, the GI50 in the assay with A498, in the assay on NCI-H460, in the assay on HCC 2998, with IGROV-1, with CAKI-1 and with NCI-H226 was > 100 µM (inactive) throughout. The GI50 in the assay with OVCAR-5 and in the assay on SW-620 was > 100 µM (inactive) each time.

On to `Cn1cc(C(=O)C[n+]2ccccc2)c2ccccc21`, for which the GI50 was 46.1 µM (inactive) in the assay with OVCAR-4; > 100 µM (inactive) in the assay on M14; 52.8 µM (inactive) in the assay with SNB-19; > 100 µM (inactive) in the assay with SR; > 100 µM (inactive) with UACC-257; 61.9 µM (inactive) with CCRF-CEM. The GI50 was > 100 µM (inactive) in the assay on UO-31; 62.4 µM (inactive) with SN12C; 28.9 µM (inactive) in the assay with A498; > 100 µM (inactive) with NCI-H460; > 100 µM (inactive) in the assay with HCC 2998; > 100 µM (inactive) in the assay on SK-MEL-5. Further, the GI50 in the assay with IGROV-1 is 72.1 µM (inactive); with CAKI-1, 30.3 µM (inactive); in the assay with NCI-H226, 12.5 µM (inactive); in the assay on HCT-15, above 100 µM; in the assay on SW-620 it was > 100 µM (inactive).

With `N#C[C@]12CC3(CC[C@H]1CC1(C2)OCCO1)OCCO3`, the GI50 with OVCAR-4, with M14, with SNB-19, with SR, in the assay on UACC-257 and with CCRF-CEM was > 100 µM (inactive) in each case. The GI50 with UO-31, in the assay on SN12C, in the assay on A498, in the assay on NCI-H460, with HCC 2998 and with SK-MEL-5 was > 100 µM (inactive) throughout. The GI50 is > 100 µM (inactive) with IGROV-1; > 100 µM (inactive) with CAKI-1; > 100 µM (inactive) in the assay with NCI-H226; above 100 µM in the assay with HCT-15; > 100 µM (inactive) in the assay on SW-620.

For the compound `O=C(c1ccccc1)C1OC12C(=O)Nc1c(Cl)cc(Cl)cc12` (configuration not stated), the GI50 in the assay on OVCAR-4 was 8.2 µM (inactive); with M14, 31.5 µM (inactive); in the assay on SNB-19 it was 66.2 µM (inactive); in the assay with SR, 11.6 µM (inactive); with UACC-257 it was > 100 µM (inactive); in the assay with CCRF-CEM, 8.65 µM (inactive). The GI50 is > 57.1 µM (inactive) in the assay on UO-31; 27.2 µM (inactive) with SN12C; > 92 µM (inactive) in the assay on A498; 30.3 µM (inactive) with NCI-H460; > 92.3 µM (inactive) with HCC 2998; > 74.3 µM (inactive) in the assay on SK-MEL-5. For the same compound, the GI50 in the assay with IGROV-1 was > 59.4 µM (inactive); with CAKI-1 it was 24.8 µM (inactive); in the assay on NCI-H226 it was 5.6 µM (inactive); in the assay on OVCAR-5, > 100 µM (inactive); in the assay on HCT-15, 24.3 µM; in the assay with SW-620, 16.1 µM (inactive).

In the case of `O=C1NC(=S)NC(=O)C1=Cc1ccc[nH]1`, the GI50 is 15.3 µM (inactive) in the assay with OVCAR-4; 21 µM (inactive) with M14; 25.8 µM (inactive) with SNB-19; 3.62 µM (inactive) in the assay with SR; 20.9 µM (inactive) in the assay on UACC-257; 19.2 µM (inactive) in the assay on CCRF-CEM. Further, the GI50 with UO-31 was 16.6 µM (inactive); with SN12C, 10.6 µM (inactive); in the assay on A498, 35.2 µM (inactive); in the assay with NCI-H460, 8.11 µM (inactive); with HCC 2998 it was 11.8 µM (inactive); in the assay on SK-MEL-5, 26.5 µM (inactive). Besides, the GI50 with IGROV-1 is 19.6 µM (inactive); in the assay on CAKI-1 it was 11.2 µM (inactive); with NCI-H226, 14.5 µM (inactive); in the assay with OVCAR-5, 23.2 µM (inactive); with HCT-15, 2.87 µM; in the assay on SW-620, 4.81 µM (inactive).

As for `[O-][Cl+3]([O-])([O-])O.c1ccc(/N=c2\snc(-c3ccccc3)s2)cc1`, the GI50 with OVCAR-4, in the assay on M14, in the assay on SNB-19, in the assay with SR, in the assay with UACC-257 and with CCRF-CEM was > 100 µM (inactive) throughout. Further, the GI50 with UO-31, in the assay with SN12C, with A498, in the assay with NCI-H460, in the assay on HCC 2998 and with SK-MEL-5 was > 100 µM (inactive) in each case. Moreover, the GI50 in the assay on IGROV-1 was > 100 µM (inactive); with CAKI-1, > 100 µM (inactive); in the assay on NCI-H226, > 100 µM (inactive); with HCT-15, above 100 µM; in the assay on SW-620, > 100 µM (inactive).

As for `N#CN1CC[C@@H]2CC3(CCC2C1)OCCO3` (some centres not stated), the GI50 in the assay on OVCAR-4, in the assay with M14, in the assay on SNB-19, with SR, with UACC-257 and in the assay on CCRF-CEM was > 100 µM (inactive) in each case. Moreover, the GI50 in the assay with UO-31, in the assay on SN12C, in the assay on A498, in the assay on NCI-H460, in the assay on HCC 2998 and with SK-MEL-5 was > 100 µM (inactive) each time. In addition, the GI50 in the assay with IGROV-1 was > 100 µM (inactive); in the assay with CAKI-1, > 100 µM (inactive); in the assay with NCI-H226 it was > 100 µM (inactive); with OVCAR-5, > 100 µM (inactive); in the assay on HCT-15, above 100 µM; with SW-620, > 100 µM (inactive).

As to `CCOC(=O)c1[nH]c(CN(C)Cc2[nH]c(C(=O)OCC)c(C)c2C(=O)OCc2ccccc2)c(C(=O)OCc2ccccc2)c1C`, the GI50 was 6.24 µM (inactive) in the assay on OVCAR-4; 4.99 µM (inactive) with M14; 12.9 µM (inactive) in the assay with SNB-19; > 100 µM (inactive) in the assay with SR; 21.4 µM (inactive) in the assay with UACC-257; > 100 µM (inactive) in the assay with CCRF-CEM. For the same compound, the GI50 in the assay on UO-31 was 4.09 µM (inactive); in the assay on SN12C, 6.19 µM (inactive); with A498, 15 µM (inactive); in the assay on NCI-H460, 5.58 µM (inactive); in the assay with HCC 2998, 14.4 µM (inactive); in the assay with SK-MEL-5, 6.44 µM (inactive). Further, the GI50 with IGROV-1 is 27.4 µM (inactive); with CAKI-1 it was 2.85 µM (inactive); with NCI-H226, 12.7 µM (inactive); in the assay on OVCAR-5, 6.81 µM (inactive); with HCT-15, 8.3 µM; in the assay on SW-620 it was 12.7 µM (inactive).

Values taken from ChEMBL document CHEMBL1201862, “PubChem BioAssay data set” (2004).
